In PubChem BioAssay (NCI) one finds GI50 and TGI data, which are given here for twelve compounds.

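How tested: cells in 96-well plates exposed to compound for 48 hours at five concentrations. At the GI50, growth is halved. TGI: total growth inhibition.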

Test systems include CAKI-1 renal; SW-620 colon; EKVX NSCLC; HCC-2998 colon; NCI/ADR-RES ovarian; SNB-19 CNS; SK-MEL-2 melanoma; COLO 205 colon; M14 melanoma; SR leukemia.
Holding throughout (test): NCI anticancer screen, dose series, 48 h

As for `Oc1cccc2ccc(N/N=C/c3cc(CN4CCCCC4)c(O)c4ncccc34)nc12`, the GI50 in the experiment on CAKI-1 renal is 0.309 µM; in the experiment with SW-620 colon, 0.0362 µM; in the experiment with EKVX NSCLC, 0.299 µM; in the experiment with HCC-2998 colon, 0.0499 µM; in the experiment on NCI/ADR-RES ovarian, 0.0463 µM; in the experiment on SNB-19 CNS, 0.0413 µM. Besides, the GI50 in the experiment with SK-MEL-2 melanoma was 0.0288 µM; with COLO 205 colon, 0.0651 µM. Also, the TGI amounted to 2.14 µM in the experiment with CAKI-1 renal; 3.52 µM in the experiment with SW-620 colon; 14.7 µM with EKVX NSCLC; 1.76 µM with HCC-2998 colon; 1.06 µM in the experiment with NCI/ADR-RES ovarian; 18.7 µM in the experiment with SNB-19 CNS. Moreover, the results for the TGI in the experiment with SK-MEL-2 melanoma and in the experiment with COLO 205 colon were 0.0814 µM and 1.36 µM, respectively.
With `COc1cc(C(=O)C/C(CCCC(=O)Nc2ccccc2[N+](=O)[O-])=N/NC(=O)c2cc3ccccc3cc2O)ccc1O`, the TGI in the experiment on CAKI-1 renal was over 100 µM; with SW-620 colon, over 100 µM; with EKVX NSCLC, over 84.7 µM; in the experiment with HCC-2998 colon, over 76.2 µM; in the experiment with M14 melanoma, 50.2 µM; with SNB-19 CNS, over 100 µM. Besides, the TGI in the experiment with SK-MEL-2 melanoma is over 100 µM; with COLO 205 colon, 63.2 µM.
On to `Nc1ccccc1C#C/C=C\C#Cc1cccs1`, for which the GI50 is 3.75 µM in the experiment with CAKI-1 renal; 14.4 µM in the experiment on SW-620 colon; 12.7 µM in the experiment with EKVX NSCLC; 4.17 µM with HCC-2998 colon; 10.5 µM with M14 melanoma; 8.69 µM in the experiment on NCI/ADR-RES ovarian. For the same compound, the GI50 with SNB-19 CNS was 43.5 µM; in the experiment on SK-MEL-2 melanoma, 16.2 µM; in the experiment with COLO 205 colon, 18.2 µM. Also, the TGI in the experiment on CAKI-1 renal is 21 µM; with SW-620 colon, 33 µM; with EKVX NSCLC, 35.1 µM; in the experiment on HCC-2998 colon, 19.3 µM; in the experiment with M14 melanoma it was 30.9 µM; with NCI/ADR-RES ovarian, 27.7 µM. The TGI is over 100 µM in the experiment on SNB-19 CNS, 43.3 µM in the experiment with SK-MEL-2 melanoma and 78.3 µM with COLO 205 colon.
For the compound `CCN(CC)c1ccc(C(=O)c2ccccc2C(=O)O)c(O)c1`, the TGI in the experiment with CAKI-1 renal, with SW-620 colon, in the experiment on EKVX NSCLC, with M14 melanoma, in the experiment on SNB-19 CNS and in the experiment on SK-MEL-2 melanoma was over 100 µM throughout. In addition, the TGI in the experiment with COLO 205 colon is over 100 µM.
As for `COc1ccc(-c2n/c(=C\c3c(O)[nH]c4ccc(OC)cc34)cc3c2=Nc2ccccc2-3)cc1`, the GI50 is 8.32 µM with CAKI-1 renal; 2.4 µM in the experiment on SW-620 colon; 21.2 µM in the experiment on EKVX NSCLC; 2.93 µM in the experiment with HCC-2998 colon; 1.98 µM with M14 melanoma; 3.88 µM in the experiment on SNB-19 CNS. In the experiment on COLO 205 colon, the GI50 is 10.7 µM. Moreover, the TGI in the experiment on CAKI-1 renal was 45 µM; in the experiment on SW-620 colon, 6.9 µM; in the experiment with EKVX NSCLC, 72.9 µM; in the experiment with HCC-2998 colon, 10.1 µM; with M14 melanoma, 3.59 µM; with SNB-19 CNS it was over 100 µM. In the experiment with COLO 205 colon, this compound had a TGI of 56.8 µM.
Regarding `Cc1cc(N(CCC#N)CCC#N)ccc1N=Nc1cccc(C(=O)O)c1`, the TGI in the experiment on CAKI-1 renal, with SW-620 colon, in the experiment with EKVX NSCLC, in the experiment with HCC-2998 colon, in the experiment on M14 melanoma and with SK-MEL-2 melanoma was over 100 µM throughout. Further, the TGI in the experiment on COLO 205 colon was over 100 µM.
For the compound `N#Cc1c(N2CCCC2)[nH]c(=O)c(C(c2c(Cl)cccc2Cl)c2c(O)c(C#N)c(N3CCCC3)[nH]c2=O)c1O`, the GI50 is 10.7 µM in the experiment on CAKI-1 renal; 3.91 µM in the experiment with SW-620 colon; 0.0367 µM with EKVX NSCLC; 12.1 µM with HCC-2998 colon; 11.4 µM in the experiment with M14 melanoma; 15.4 µM with NCI/ADR-RES ovarian. Moreover, the GI50 in the experiment with SNB-19 CNS was 4.24 µM; in the experiment with SK-MEL-2 melanoma it was 16.6 µM; in the experiment with COLO 205 colon, 5.11 µM. For the same compound, the TGI in the experiment on CAKI-1 renal was determined as 24 µM; in the experiment with SW-620 colon, 18.4 µM; in the experiment with EKVX NSCLC it was 17.1 µM; in the experiment with HCC-2998 colon it was 25.7 µM; with M14 melanoma it was 24 µM; in the experiment on NCI/ADR-RES ovarian it was 33.8 µM. The results for the TGI with SNB-19 CNS, in the experiment on SK-MEL-2 melanoma and in the experiment on COLO 205 colon were 18.2 µM, 45.4 µM and 17.4 µM, respectively.
In the case of `CC1=C(C)C(=O)c2c(cc3ccccn23)C1=O`, the TGI is 35.5 µM in the experiment with SW-620 colon; 46.4 µM in the experiment on EKVX NSCLC; 29.9 µM in the experiment with HCC-2998 colon; 28.1 µM in the experiment on M14 melanoma; 72.5 µM in the experiment with SR leukemia; 28.6 µM in the experiment with SNB-19 CNS. Moreover, the TGI in the experiment with COLO 205 colon amounted to 34.5 µM.
On to `CC1=Nc2ccccc2S/C1=C(/C)NNC(=O)C(N)=O`, for which the TGI in the experiment on CAKI-1 renal, with SW-620 colon, in the experiment with EKVX NSCLC, with HCC-2998 colon, in the experiment on M14 melanoma and in the experiment with SNB-19 CNS was over 100 µM in each case. In addition, the TGI in the experiment on SK-MEL-2 melanoma and in the experiment with COLO 205 colon was over 100 µM throughout.
Consider `Cc1ccc(N=Cc2ccc3c(c2)OCO3)cc1C`, for which the TGI with CAKI-1 renal, in the experiment on SW-620 colon, with EKVX NSCLC, in the experiment with M14 melanoma, in the experiment on SR leukemia and in the experiment with SNB-19 CNS was over 100 µM throughout. Moreover, the TGI in the experiment with SK-MEL-2 melanoma and in the experiment with COLO 205 colon was over 100 µM each time.
For the compound `Nc1nc2c(c3ncncc13)C(c1cccc(C(F)(F)F)c1)Cc1ncncc1-2` (stereo unspecified), the GI50 in the experiment with CAKI-1 renal is 4.29 µM; in the experiment on SW-620 colon, 4.51 µM; in the experiment with EKVX NSCLC it was 6.18 µM; in the experiment on HCC-2998 colon, 11.2 µM; with M14 melanoma, 2.97 µM; with NCI/ADR-RES ovarian it was 3.48 µM. Besides, the GI50 was 4.88 µM with SNB-19 CNS, 5.36 µM in the experiment on SK-MEL-2 melanoma and 3.26 µM with COLO 205 colon. Moreover, the TGI in the experiment with CAKI-1 renal is over 100 µM; in the experiment on SW-620 colon it was over 100 µM; with EKVX NSCLC, over 100 µM; in the experiment on HCC-2998 colon it was 48.7 µM; in the experiment on M14 melanoma, 10 µM; in the experiment with NCI/ADR-RES ovarian, over 100 µM. Besides, the TGI in the experiment with SNB-19 CNS was determined as 33.2 µM; in the experiment with SK-MEL-2 melanoma it was 29.7 µM; in the experiment with COLO 205 colon it was 13.8 µM.
With `COc1cc(OC(C)=O)cc2c(OC(C)=O)ccc(OC(C)=O)c12`, the TGI in the experiment with CAKI-1 renal, in the experiment with SW-620 colon, in the experiment with EKVX NSCLC, in the experiment on M14 melanoma, in the experiment with SR leukemia and with SNB-19 CNS was over 100 µM in each case. Besides, the TGI in the experiment on SK-MEL-2 melanoma was over 100 µM.
